Laboratory results reported in patent publication US12390446B2 (RESEARCH TRIANGLE INSTITUTE, priority 2017, dated 2025).
Like-named read-outs stand apart in the source and are kept apart here.

How the values were obtained:
[1] = target: T1, NPFF2 receptor (human NPFFR2 in CHO-RD-HGA16 cells) (Homo sapiens, UniProt Q9Y5X5); assay: Calcium mobilization functional Ke assay, NPFF2; type: cell-based; settings: for Kb: read-out: NPFF2 Ke
T1 construct: expressed in transfected cells

[2] = target: T2, NPFF1 receptor (human NPFFR1 in CHO-RD-HGA16 cells) (Homo sapiens, UniProt Q9GZQ6); assay: Calcium mobilization functional Ke assay, NPFF1; type: cell-based; settings: for Kb: read-out: NPFF1 Ke
T2 construct: expressed in transfected cells
T2 sequence (Q9GZQ6 whole entry): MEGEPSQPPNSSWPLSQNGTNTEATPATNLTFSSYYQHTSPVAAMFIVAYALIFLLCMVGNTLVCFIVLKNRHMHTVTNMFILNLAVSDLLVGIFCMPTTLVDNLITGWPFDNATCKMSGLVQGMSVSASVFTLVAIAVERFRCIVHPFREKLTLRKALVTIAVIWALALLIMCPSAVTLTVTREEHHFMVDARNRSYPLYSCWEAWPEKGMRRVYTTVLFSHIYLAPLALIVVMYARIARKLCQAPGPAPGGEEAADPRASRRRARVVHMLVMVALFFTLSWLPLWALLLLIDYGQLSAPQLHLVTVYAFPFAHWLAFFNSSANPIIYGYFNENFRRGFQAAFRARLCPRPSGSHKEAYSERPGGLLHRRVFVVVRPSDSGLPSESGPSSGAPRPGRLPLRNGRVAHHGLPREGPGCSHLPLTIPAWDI

[3] = Table 1, footnote c: pre-incubation of antagonist and test compound 45 min or 1 hr
[4] = Table 1, mean ± SEM, apparent dissociation constant vs NPFF
[5] = Table 2, 4-(4-methylthio)benzylamino series, mean ± SEM

T1 sequence (Q9Y5X5 whole entry): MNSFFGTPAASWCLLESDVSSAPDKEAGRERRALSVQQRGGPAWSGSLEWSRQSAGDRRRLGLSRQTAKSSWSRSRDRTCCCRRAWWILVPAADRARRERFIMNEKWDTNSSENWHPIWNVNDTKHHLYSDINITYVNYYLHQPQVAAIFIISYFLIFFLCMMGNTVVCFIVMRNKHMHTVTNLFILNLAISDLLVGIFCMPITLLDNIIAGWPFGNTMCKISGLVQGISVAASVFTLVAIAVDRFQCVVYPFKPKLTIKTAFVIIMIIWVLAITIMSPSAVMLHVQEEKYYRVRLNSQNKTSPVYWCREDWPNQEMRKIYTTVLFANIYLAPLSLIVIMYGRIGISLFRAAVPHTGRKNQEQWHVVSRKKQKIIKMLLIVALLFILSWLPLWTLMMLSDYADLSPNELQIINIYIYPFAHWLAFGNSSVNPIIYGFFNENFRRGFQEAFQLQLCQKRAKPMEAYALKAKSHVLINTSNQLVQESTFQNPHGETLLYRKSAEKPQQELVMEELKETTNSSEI

## O=C(NCCc1ccc([N+](=O)[O-])cc1)[C@@H]1C[C@H](NCc2ccccc2)CN1Cc1ccccc1Cl [Compound 56, (2S,4S)-4-(Benzylamino)-1-[(2-chlorophenyl)methyl]-N-[2-(4-nitrophenyl)ethyl]pyrrolidine-2-carboxamide]
[1]; Table 3, mean ± SEM
  Kb: 1.4 µM
[2]; Table 3, mean ± SEM
  Kb: 1.23 µM

## COc1ccc(CN[C@H]2C[C@@H](C(=O)NCCC(C)C)N(Cc3ccccc3Cl)C2)cc1 [Compound 17, (2S,4S)-1-[(2-Chlorophenyl)methyl]-4-{[(4-methoxyphenyl)methyl]amino}-N-(3-methylbutyl)pyrrolidine-2-carboxamide]
[1]; [3]
  Kb: 1.54 µM
[2]; [4]
  Kb: 1.32 µM

## COc1ccc(CN[C@H]2C[C@@H](C(=O)NCCc3ccccc3)N(Cc3ccc4c(c3)OCO4)C2)cc1 [Compound 88, (2S,4S)-1-(2H-1,3-Benzodioxol-5-ylmethyl)-4-{[(4-methoxyphenyl)methyl]amino}-N-(2-phenylethyl)pyrrolidine-2-carboxamide]
[1]; Table 4, mean ± SEM
  Kb: > 10 µM
[2]; Table 4, mean ± SEM
  Kb: 1.86 µM

## CCCCCCN[C@H]1C[C@@H](C(=O)NCCc2ccc([N+](=O)[O-])cc2)N(Cc2ccccc2Cl)C1 [Compound 55, (2S,4S)-1-[(2-Chlorophenyl)methyl]-4-(hexylamino)-N-[2-(4-nitrophenyl)ethyl]pyrrolidine-2-carboxamide]
[1]; Table 3, mean ± SEM
  Kb: 4.47 µM
[2]; Table 3, mean ± SEM
  Kb: 2.32 µM

## COc1ccc(CN[C@H]2C[C@@H](C(=O)NCCc3ccncc3)N(Cc3ccccc3Cl)C2)cc1 [Compound 37, (2S,4S)-1-[(2-Chlorophenyl)methyl]-4-{[(4-methoxyphenyl)methyl]amino}-N-[2-(pyridin-4-yl)ethyl]pyrrolidine-2-carboxamide]
[2]; [4]
  Kb: 1.82 µM
[2]; calcium mobilization assay
  NPFF1 Ke: 1,820 nM

## CCCCNC(=O)[C@@H]1C[C@H](NCc2ccc(OC)cc2)CN1Cc1ccccc1Cl [Compound 13, (2S,4S)—N-Butyl-1-[(2-chlorophenyl)methyl]-4-{[(4-methoxyphenyl)methyl]amino}pyrrolidine-2-carboxamide]
[2]; [4]
  Kb: 1.24 µM

## CCCCCCCCCCNC(=O)[C@@H]1C[C@H](NCc2ccc(OC)cc2)CN1Cc1ccccc1Cl [Compound 19, (2S,4S)-1-[(2-Chlorophenyl)methyl]-N-decyl-4-{[(4-methoxyphenyl)methyl]amino}pyrrolidine-2-carboxamide]
[2]; [3]
  Kb: > 10 µM

## COc1ccc(CN[C@H]2C[C@@H](C(=O)NCCc3ccccc3)N(Cc3ccccc3C)C2)cc1 [Compound 82, (2S,4S)-4-{[(4-Methoxyphenyl)methyl]amino}-1-[(2-methylphenyl)methyl]-N-(2-phenylethyl)pyrrolidine-2-carboxamide]
[1]; Table 4, mean ± SEM
  Kb: 3.94 µM
[2]; Table 4, mean ± SEM
  Kb: 0.49 ± 0.07 µM

## COc1ccc(CN[C@H]2C[C@@H](C(=O)NC(C)(C)C)N(Cc3ccccc3Cl)C2)cc1 [Compound 15, (2S,4S)—N-tert-Butyl-1-[(2-chlorophenyl)methyl]-4-{[(4-methoxyphenyl)methyl]amino}pyrrolidine-2-carboxamide]
[1]; [3]
  Kb: 1.26 µM
[2]; [4]
  Kb: 1.88 µM

## CSc1ccc(CN[C@H]2C[C@@H](C(=O)NCCc3ccccc3)N(Cc3ccccc3Cl)C2)cc1 [Compound 45, (2S,4S)-1-[(2-Chlorophenyl)methyl]-4-{[(4-(methylthio)phenyl)methyl]amino}-N-(2-phenylethyl)pyrrolidine-2-carboxamide]
[1]; [5]
  Kb: 3.7 µM
[2]; [5]
  Kb: 0.53 ± 0.08 µM
[2]; calcium mobilization assay
  Kb: 0.53 µM

## COc1ccc(CN[C@H]2C[C@@H](C(=O)NCCc3ccccc3)N(Cc3cccc(OC)c3)C2)cc1 [Compound 80, (2S,4S)-1-[(3-Methoxyphenyl)methyl]-4-{[(4-methoxyphenyl)methyl]amino}-N-(2-phenylethyl)pyrrolidine-2-carboxamide]
[1]; Table 4, mean ± SEM
  Kb: > 10 µM
[2]; Table 4, mean ± SEM
  Kb: 2.46 µM

## COc1ccc(CN[C@H]2C[C@@H](C(=O)NCCc3ccccc3)N(CC3CCCCC3)C2)cc1 [Compound 75, (2S,4S)-1-(Cyclohexylmethyl)-4-{[(4-methoxyphenyl)methyl]amino}-N-(2-phenylethyl) pyrrolidine-2-carboxamide]
[1]; Table 4, mean ± SEM
  NPFF2 Ke: 3,640 ± 830 nM
[2]; Table 4, mean ± SEM
  NPFF1 Ke: 650 ± 70 nM

## COc1ccc(CN[C@H]2C[C@@H](C(=O)NCCc3ccccc3)N(Cc3ccc(O)cc3)C2)cc1 [Compound 84, (2S,4S)-1-[(4-Hydroxyphenyl)methyl]-4-{[(4-methoxyphenyl)methyl]amino}-N-(2-phenylethyl)pyrrolidine-2-carboxamide]
[1]; Table 4, mean ± SEM
  Kb: > 10 µM
[2]; Table 4, mean ± SEM
  Kb: > 10 µM

## CCNC(=O)[C@@H]1C[C@H](NCc2ccc(OC)cc2)CN1Cc1ccccc1Cl [Compound 11, (2S,4S)-1-[(2-Chlorophenyl)methyl]-N-ethyl-4-{[(4-methoxyphenyl)methyl]amino}pyrrolidine-2-carboxamide]
[1]; [4]
  Kb: > 10 µM
[1]; at 10 μM
  NPFF2 antagonist activity: inactive
[2]; [4]
  Kb: > 10 µM
[2]; at 10 μM
  NPFF1 antagonist activity: inactive
[2]; calcium mobilization assay
  Kb: > 10 µM

## COc1ccc(CN[C@H]2C[C@@H](C(=O)NCCc3ccccc3)N(Cc3ccc(C)cc3)C2)cc1 [Compound 83, (2S,4S)-4-{[(4-Methoxyphenyl)methyl]amino}-1-[(4-methylphenyl)methyl]-N-(2-phenylethyl)pyrrolidine-2-carboxamide]
[1]
  Kb: > 10 µM
[2]
  Kb: 1.32 µM

## COc1ccc(CN[C@H]2C[C@@H](C(=O)NCCC3CCCCC3)N(Cc3ccccc3Cl)C2)cc1 [Compound 21, (2S,4S)-1-[(2-Chlorophenyl)methyl]-N-(2-cyclohexylethyl)-4-{[(4-methoxyphenyl)methyl]amino}pyrrolidine-2-carboxamide]
[1]; [3]
  Kb: 1.22 µM
[2]; [4]
  Kb: 1.12 µM

## CCCCCCN1C[C@@H](NCc2ccc(OC)cc2)C[C@H]1C(=O)NCCc1ccccc1 [Compound 74, (2S,4S)-1-Hexyl-4-{[(4-methoxyphenyl)methyl]amino}-N-(2-phenylethyl)pyrrolidine-2-carboxamide]
[1]; Table 4, mean ± SEM
  Kb: 7.1 µM
[2]; Table 4, mean ± SEM
  Kb: 1.45 µM

## CCCNC(=O)[C@@H]1C[C@H](NCc2ccc(OC)cc2)CN1Cc1ccccc1Cl [Compound 12, (2S,4S)-1-[(2-Chlorophenyl)methyl]-4-{[(4-methoxyphenyl)methyl]amino}-N-propylpyrrolidine-2-carboxamide]
[1]; [4]
  Kb: 9.08 µM
[2]; [4]
  Kb: 2.6 µM
[2]; calcium mobilization assay
  Kb: 9.08 µM

## COc1ccc(CN[C@H]2C[C@@H](C(=O)NCCc3ccccc3)N(Cc3ccc4ccccc4c3)C2)cc1 [Compound 87, (2S,4S)-4-{[(4-Methoxyphenyl)methyl]amino}-1-(naphthalen-2-ylmethyl)-N-(2-phenylethyl)pyrrolidine-2-carboxamide]
[1]; Table 4, mean ± SEM
  Kb: 7.22 µM
[2]; Table 4, mean ± SEM
  Kb: 1.72 µM

## COc1ccc(CN[C@H]2C[C@@H](C(=O)NCCc3ccccc3)N(Cc3ccc(Cl)cc3)C2)cc1 [Compound 78, (2S,4S)-1-[(4-Chlorophenyl)methyl]-4-{[(4-methoxyphenyl)methyl]amino}-N-(2-phenylethyl)pyrrolidine-2-carboxamide]
[1]; Table 4, mean ± SEM
  Kb: 4.85 µM
[2]; Table 4, mean ± SEM
  Kb: 2.15 µM

## COc1ccc(CN[C@H]2C[C@@H](C(=O)NCCc3ccccc3)N(Cc3ccccc3OC)C2)cc1 [Compound 79, (2S,4S)-1-[(2-Methoxyphenyl)methyl]-4-{[(4-methoxyphenyl)methyl]amino}-N-(2-phenylethyl)pyrrolidine-2-carboxamide]
[1]; Table 4, mean ± SEM
  Kb: 5.11 µM
[2]; Table 4, mean ± SEM
  Kb: 1.23 µM

## O=C(NCCc1ccc([N+](=O)[O-])cc1)[C@@H]1C[C@H](NCCc2ccccc2)CN1Cc1ccccc1Cl [Compound 58]
[1]; Table 3, mean ± SEM
  Kb: 1.13 µM
[2]; Table 3, mean ± SEM
  Kb: 1.15 µM

## CCCN[C@H]1C[C@@H](C(=O)NCCc2ccc([N+](=O)[O-])cc2)N(Cc2ccccc2Cl)C1 [Compound 52]
[1]; Table 3, mean ± SEM
  Kb: > 10 µM
[2]; Table 3, mean ± SEM
  Kb: 5.16 µM

## COc1cccc(CN[C@H]2C[C@@H](C(=O)NCCc3ccc([N+](=O)[O-])cc3)N(Cc3ccccc3Cl)C2)c1 [Compound 59, (2S,4S)-1-[(2-Chlorophenyl)methyl]-4-{[(3-methoxyphenyl)methyl]amino}-N-[2-(4-nitrophenyl)ethyl]pyrrolidine-2-carboxamide]
[1]; Table 3, mean ± SEM
  Kb: 2.82 µM
[2]; Table 3, mean ± SEM
  Kb: 1.39 µM

## CCCCCNC(=O)[C@@H]1C[C@H](NCc2ccc(SC)cc2)CN1Cc1ccccc1Cl [Compound 44, (2S,4S)-1-[(2-Chlorophenyl)methyl]-4-{[(4-(methylthio)phenyl)methyl]amino}-N-pentylpyrrolidine-2-carboxamide]
[1]; Table 2, footnote c: pre-incubation 1 hr
  Kb: 0.97 ± 0.03 µM
[2]; [5]
  Kb: 0.36 ± 0.05 µM
[2]; calcium mobilization assay
  Kb: 0.36 µM

## CCNC(=O)[C@@H]1C[C@H](NCc2ccc(SC)cc2)CN1Cc1ccccc1Cl [Compound 1]
[1]; calcium mobilization assay
  NPFF2 Ke: 7,250 nM
[2]; calcium mobilization assay
  NPFF1 Ke: 1,620 nM

## COc1ccc(CN[C@H]2C[C@@H](C(=O)NCCc3ccc(C(F)(F)F)cc3)N(Cc3ccccc3Cl)C2)cc1 [Compound 36, (2S,4S)-1-[(2-Chlorophenyl)methyl]-4-{[(4-methoxyphenyl)methyl]amino}-N-{2-[4-(trifluoromethyl)phenyl]ethyl}pyrrolidine-2-carboxamide]
[2]; [4]
  Kb: 1.67 µM
[2]; calcium mobilization assay
  NPFF1 Ke: 1,670 nM

## COc1ccc(CN[C@H]2C[C@@H](C(=O)NCCc3ccc(S(C)(=O)=O)cc3)N(Cc3ccccc3Cl)C2)cc1 [Compound 39, (2S,4S)-1-[(2-Chlorophenyl)methyl]-N-[2-(4-methanesulfonylphenyl)ethyl]-4-{[(4-methoxyphenyl)methyl]amino}pyrrolidine-2-carboxamide]
[2]; [4]
  Kb: 1.88 µM

## COc1ccc(CN[C@H]2C[C@@H](C(=O)NCCN3CCOCC3)N(Cc3ccccc3Cl)C2)cc1 [Compound 20, (2S,4S)-1-[(2-Chlorophenyl)methyl]-4-{[(4-methoxyphenyl)methyl]amino}-N-[2-(morpholin-4-yl)ethyl]pyrrolidine-2-carboxamide]
[2]; [4]
  Kb: 1.96 µM
